As a reminder, the IC50 is the concentration that gives 50% inhibition.

Common to all, as to type: cell-based
Assay [1] has as its target T1, pEGFR in CUTO14 cells (Homo sapiens, UniProt P00533, DUP767-769).
T1 construct: endogenous in cells; host or cells: CUTO14 cells
The assay can be described thus: Inhibitor activity on EGFR phosphorylation (pEGFR AlphaLISA, 2 h), CUTO14 cells. How it is done: CUTO14 cells were obtained from Dr. Robert C. Doebele at the University of Colorado.
Shake 350 rpm for 1 hr in the dark • 3.4 Prepare donor mix under low light conditions prior to use. Dispense 5 μL of donor mix to all the wells. Mix well on the shaker, seal and wrap in aluminum foil and incubate 1.5 hrs at room temperature in the dark • 3.5 Transfer 18.5 μL mixture to OptiPlate 384, and read using an Envision.

Assay [2] addresses T2, Ba/F3 cells with EGFR WT (Homo sapiens, UniProt P00533).
T2 construct: expressed in transfected cells; host or cells: Ba/F3 (murine pro-B cells), retroviral transduction, puromycin selection, maintained with EGF
Description: EGFR activity: Ba/F3 cell viability (CellTiter-Glo, 72 h), EGFR WT. Particulars: read-out: BaF3 WT IC50. In general terms: Cellular ATP, detected with luciferase, serves as a proxy for viable cell number.

The target in assay [3] is T3, Ba/F3 cells with EGFR exon 20 NPG Ins D770_N771 (Homo sapiens, UniProt P00533, INS770NPG).
T3 construct: expressed in transfected cells; host or cells: Ba/F3 (murine pro-B cells), retroviral transduction, puromycin selection, IL3-independent pool
T3 sequence (P00533 with tags, fused parts or gaps INS770NPG): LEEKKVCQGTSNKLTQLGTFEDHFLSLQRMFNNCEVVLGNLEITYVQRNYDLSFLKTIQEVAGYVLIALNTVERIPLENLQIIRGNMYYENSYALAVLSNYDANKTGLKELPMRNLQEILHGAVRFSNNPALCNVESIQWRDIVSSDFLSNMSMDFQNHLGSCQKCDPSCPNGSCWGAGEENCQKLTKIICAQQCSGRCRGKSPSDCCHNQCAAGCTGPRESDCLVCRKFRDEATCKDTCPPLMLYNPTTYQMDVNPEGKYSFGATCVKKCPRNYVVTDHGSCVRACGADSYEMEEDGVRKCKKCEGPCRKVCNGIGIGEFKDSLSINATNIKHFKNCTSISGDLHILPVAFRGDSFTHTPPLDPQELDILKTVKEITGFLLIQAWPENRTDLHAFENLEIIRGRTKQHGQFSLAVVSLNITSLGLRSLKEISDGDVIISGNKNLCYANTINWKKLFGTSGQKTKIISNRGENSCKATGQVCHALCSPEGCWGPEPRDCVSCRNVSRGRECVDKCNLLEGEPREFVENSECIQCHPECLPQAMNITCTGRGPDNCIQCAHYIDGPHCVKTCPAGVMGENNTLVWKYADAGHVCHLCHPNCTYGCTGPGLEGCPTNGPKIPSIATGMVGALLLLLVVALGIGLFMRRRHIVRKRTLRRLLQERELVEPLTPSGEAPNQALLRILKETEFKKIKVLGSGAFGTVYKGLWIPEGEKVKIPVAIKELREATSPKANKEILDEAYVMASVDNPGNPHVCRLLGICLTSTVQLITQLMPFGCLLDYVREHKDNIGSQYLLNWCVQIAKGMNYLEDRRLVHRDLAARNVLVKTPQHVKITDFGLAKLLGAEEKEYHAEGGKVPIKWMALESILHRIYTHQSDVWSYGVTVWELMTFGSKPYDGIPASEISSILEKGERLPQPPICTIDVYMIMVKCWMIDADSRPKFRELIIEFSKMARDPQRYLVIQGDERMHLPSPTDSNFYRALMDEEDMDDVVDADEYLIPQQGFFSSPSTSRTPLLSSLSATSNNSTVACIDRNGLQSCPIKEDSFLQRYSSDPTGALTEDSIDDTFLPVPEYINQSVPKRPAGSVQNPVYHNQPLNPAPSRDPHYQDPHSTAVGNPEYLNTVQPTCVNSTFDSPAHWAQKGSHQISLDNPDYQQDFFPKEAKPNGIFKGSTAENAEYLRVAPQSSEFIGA
The assay can be described thus: EGFR activity: Ba/F3 cell viability (CellTiter-Glo, 72 h), EGFR exon 20 NPG insertion. The following applies: EGFR exon 20 NPG Ins D770_N771, cell viability, read-out: BaF3 NPG IC50.

The target in assay [4] is T4, Ba/F3 cells with EGFR exon 20 ASV Ins V769_D770 (Homo sapiens, UniProt P00533, INS769ASV).
T4 construct: expressed in transfected cells; host or cells: Ba/F3 (murine pro-B cells), retroviral transduction, puromycin selection, IL3-independent pool
T4 sequence (P00533 with tags, fused parts or gaps INS769ASV): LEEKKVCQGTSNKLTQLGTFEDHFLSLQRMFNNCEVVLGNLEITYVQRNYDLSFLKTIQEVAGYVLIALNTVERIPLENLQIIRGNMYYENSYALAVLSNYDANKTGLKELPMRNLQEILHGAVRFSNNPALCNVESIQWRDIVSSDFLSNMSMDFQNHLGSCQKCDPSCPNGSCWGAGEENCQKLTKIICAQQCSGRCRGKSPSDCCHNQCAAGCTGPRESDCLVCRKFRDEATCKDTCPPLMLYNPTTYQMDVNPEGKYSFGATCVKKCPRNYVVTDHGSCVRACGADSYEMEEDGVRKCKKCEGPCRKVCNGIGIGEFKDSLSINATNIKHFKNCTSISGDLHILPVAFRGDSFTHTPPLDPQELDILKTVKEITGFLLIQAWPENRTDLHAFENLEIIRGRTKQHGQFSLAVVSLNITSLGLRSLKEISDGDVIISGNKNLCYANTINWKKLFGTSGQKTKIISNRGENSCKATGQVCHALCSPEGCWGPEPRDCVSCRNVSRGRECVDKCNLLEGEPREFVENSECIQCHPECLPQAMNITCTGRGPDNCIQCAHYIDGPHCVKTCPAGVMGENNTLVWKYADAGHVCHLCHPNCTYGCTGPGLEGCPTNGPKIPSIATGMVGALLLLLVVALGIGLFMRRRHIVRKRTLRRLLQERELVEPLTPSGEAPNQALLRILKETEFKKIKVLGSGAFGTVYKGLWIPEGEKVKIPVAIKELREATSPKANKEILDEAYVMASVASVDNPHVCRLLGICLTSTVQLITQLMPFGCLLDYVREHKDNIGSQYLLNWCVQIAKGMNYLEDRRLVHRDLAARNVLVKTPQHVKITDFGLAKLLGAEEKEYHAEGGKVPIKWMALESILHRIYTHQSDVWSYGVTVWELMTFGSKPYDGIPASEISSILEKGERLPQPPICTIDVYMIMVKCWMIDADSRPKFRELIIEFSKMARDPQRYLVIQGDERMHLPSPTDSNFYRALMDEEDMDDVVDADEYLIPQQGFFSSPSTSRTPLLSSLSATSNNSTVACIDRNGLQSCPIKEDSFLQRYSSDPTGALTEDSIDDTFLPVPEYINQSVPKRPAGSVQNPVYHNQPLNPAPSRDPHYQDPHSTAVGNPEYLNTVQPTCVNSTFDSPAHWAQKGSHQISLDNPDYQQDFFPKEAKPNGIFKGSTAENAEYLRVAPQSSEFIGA
Description: EGFR activity: Ba/F3 cell viability (CellTiter-Glo, 72 h), EGFR exon 20 ASV insertion. Particulars: EGFR exon 20 ASV Ins V769_D770, cell viability, read-out: BaF3 ASV IC50.

T2 sequence (P00533 25-1210): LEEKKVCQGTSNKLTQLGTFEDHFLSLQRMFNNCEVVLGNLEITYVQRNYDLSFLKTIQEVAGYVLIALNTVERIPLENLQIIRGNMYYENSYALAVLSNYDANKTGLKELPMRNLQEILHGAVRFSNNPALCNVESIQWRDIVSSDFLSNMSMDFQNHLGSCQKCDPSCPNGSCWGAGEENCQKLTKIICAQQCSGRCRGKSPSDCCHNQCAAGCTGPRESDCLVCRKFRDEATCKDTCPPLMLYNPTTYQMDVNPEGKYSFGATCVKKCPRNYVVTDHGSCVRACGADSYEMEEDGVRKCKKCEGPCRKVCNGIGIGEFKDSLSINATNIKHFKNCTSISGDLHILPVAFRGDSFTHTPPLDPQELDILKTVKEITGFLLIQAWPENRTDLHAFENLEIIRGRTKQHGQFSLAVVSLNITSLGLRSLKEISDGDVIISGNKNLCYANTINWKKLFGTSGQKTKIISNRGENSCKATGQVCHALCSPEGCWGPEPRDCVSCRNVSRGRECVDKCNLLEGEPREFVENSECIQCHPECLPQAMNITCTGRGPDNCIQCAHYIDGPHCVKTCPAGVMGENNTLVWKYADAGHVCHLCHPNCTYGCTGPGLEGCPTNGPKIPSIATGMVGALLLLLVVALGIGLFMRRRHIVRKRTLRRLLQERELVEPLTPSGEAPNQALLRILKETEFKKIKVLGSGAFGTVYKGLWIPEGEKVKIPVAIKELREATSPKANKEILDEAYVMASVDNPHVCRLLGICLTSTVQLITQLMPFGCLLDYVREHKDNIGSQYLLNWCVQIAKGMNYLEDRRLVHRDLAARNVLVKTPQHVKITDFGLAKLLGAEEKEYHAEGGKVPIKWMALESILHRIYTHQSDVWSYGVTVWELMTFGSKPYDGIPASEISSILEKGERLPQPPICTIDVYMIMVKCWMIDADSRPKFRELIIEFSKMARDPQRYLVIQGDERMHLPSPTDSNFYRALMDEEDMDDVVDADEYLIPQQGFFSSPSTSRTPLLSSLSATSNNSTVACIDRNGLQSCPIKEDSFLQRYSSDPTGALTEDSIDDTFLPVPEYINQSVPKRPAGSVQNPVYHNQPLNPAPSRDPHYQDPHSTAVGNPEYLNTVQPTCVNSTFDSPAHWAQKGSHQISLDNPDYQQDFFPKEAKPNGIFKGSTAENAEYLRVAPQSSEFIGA
T1 sequence (P00533 with tags, fused parts or gaps DUP767-769): as the sequence (P00533 with tags, fused parts or gaps INS769ASV) above

For the molecule `COc1c(Cl)cccc1Nc1c(-c2ccncc2C#C[C@H]2C[C@@H]3C[C@@H]3N2C(=O)/C=C/CN(C)C)[nH]c2c1C(=O)NCC2` [compound 466, 3-[(3-chloro-2-methoxyphenyl)amino]-2-(3-{2-[(1S,3R,5S)-2-[(2E)-4-(dimethylamino)but-2-enoyl]-2-azabicyclo[3.1.0]hexan-3-yl]ethynyl}pyridin-4-yl)-1H,5H,6H,7H-pyrrolo[3,2-c]pyridin-4-one], in assay [1], the IC50 was below 100 nM.
The same measure, in the same setting: in the case of `C=CC(=O)N[C@@H](C)C#Cc1cnccc1-c1[nH]c2c(c1Nc1cccc(Cl)c1OC)C(=O)NCC2` [compound 376, N-[(2S)-4-(4-{3-[(3-chloro-2-methoxyphenyl)amino]-4-oxo-1H,5H,6H,7H-pyrrolo[3,2-c]pyridin-2-yl}pyridin-3-yl)but-3-yn-2-yl]prop-2-enamide] it was below 100 nM.
`C=CC(=O)N1CC[C@@H]1[C@H](C)Oc1cnccc1-c1[nH]c2c(c1Nc1cccc(F)c1OC)C(=O)NCC2` [compound 310, 3-[(3-fluoro-2-methoxyphenyl)amino]-2-{3-[(1S)-1-[(2R)-1-(prop-2-enoyl)azetidin-2-yl]ethoxy]pyridin-4-yl}-1H,5H,6H,7H-pyrrolo[3,2-c]pyridin-4-one]: the IC50 in assay [2] was above 1000 nM; in assay [3] it was 100 to 1000 nM; in assay [4], 100 to 1000 nM.
As to `CC#CC(=O)N1CC[C@@H]1COc1cnccc1-c1[nH]c2cc[nH]c(=O)c2c1Nc1cccc(Cl)c1OC` [compound 630], the figures for the IC50 in assay [2], in assay [3] and in assay [4] were above 1000 nM, below 100 nM and below 100 nM, respectively.
With `COc1c(F)cccc1Nc1c(-c2ccncc2C#C[C@@H]2CCN2C(=O)/C=C/CN(C)C)[nH]c2c1C(=O)NCC2` [compound 594], the 50% inhibitory concentration (IC50) was above 1000 nM in assay [2], below 100 nM in assay [3] and below 100 nM in assay [4].
For the molecule `C=C(CN(C)C)C(=O)NC(C)(C)C#Cc1cnccc1-c1[nH]c2c(c1Nc1cccc(F)c1OC)C(=O)NCC2` [compound 575], the half-maximal inhibitory concentration (IC50) in assay [2], in assay [3] and in assay [4] was below 100 nM throughout.
`COc1c(F)cccc1Nc1c(-c2ccncc2C#C[C@@]2(C)COCCN2C(=O)/C=C/CN(C)C)[nH]c2c1C(=O)NCC2` [compound 459]: the IC50 in assay [2] was above 1000 nM; in assay [3] it was below 100 nM; in assay [4], below 100 nM.
For `C=CC(=O)N1CCC[C@H]1COc1cnccc1-c1[nH]c2c(c1Nc1cccc(Cl)c1CC)C(=O)NCC2` [compound 216, 3-[(3-chloro-2-ethylphenyl)amino]-2-(3-{[(2S)-1-(prop-2-enoyl)pyrrolidin-2-yl]methoxy}pyridin-4-yl)-1H,5H,6H,7H-pyrrolo[3,2-c]pyridin-4-one], the 50% inhibitory concentration (IC50) in assay [2] was 100 to 1000 nM; in assay [3] it was below 100 nM; in assay [4] it was below 100 nM.
With `CC#CC(=O)N1CC[C@H]1C#Cc1cnccc1-c1[nH]c2c(c1Nc1cccc(Cl)c1OC)C(=O)NCC2` [compound 371], the half-maximal inhibitory concentration (IC50) is 100 to 1000 nM in assay [2], below 100 nM in assay [3] and below 100 nM in assay [4].
On to `C=CC(=O)N1CCOC[C@]1(C)C#Cc1cnccc1-c1[nH]c2c(c1Nc1cccc(F)c1OC)C(=O)NCC2` [compound 460], for which the IC50 is 100 to 1000 nM in assay [2], below 100 nM in assay [3] and below 100 nM in assay [4].
For the molecule `C=CC(=O)N[C@@H](C#Cc1cnccc1-c1[nH]c2c(c1Nc1cccc(Cl)c1OC)C(=O)NCC2)CC` [compound 582], the half-inhibitory concentration (IC50) in assay [2] was above 1000 nM; in assay [3], below 100 nM; in assay [4], below 100 nM.
As for `C=CC(=O)N1CCOC[C@@]1(C)C#Cc1cnccc1-c1[nH]c2c(c1Nc1cccc(Cl)c1OC)C(=O)NCC2` [compound 634], the IC50 in assay [2] was 100 to 1000 nM; in assay [3] it was below 100 nM; in assay [4] it was below 100 nM.
Consider `C=CC(=O)NC1(C#Cc2cnccc2-c2[nH]c3c(c2Nc2cccc(F)c2OC)C(=O)NCC3)CC2(COC2)C1` [compound 402], for which the IC50 in assay [2] is above 1000 nM; in assay [3] it was 100 to 1000 nM; in assay [4] it was 100 to 1000 nM.
For the molecule `C=C(CN(C)C)C(=O)NC(C)(C)C#Cc1cnccc1-c1[nH]c2c(c1Nc1cccc(Cl)c1OC)C(=O)NCC2` [compound 574], the IC50 in assay [2], in assay [3] and in assay [4] was below 100 nM throughout.
With `CC#CC(=O)N1CCOC[C@@H]1COc1cnccc1-c1[nH]c2c(c1Nc1cccc(F)c1OC)C(=O)NCC2` [compound 293, 2-(3-{[(3R)-4-(but-2-ynoyl)morpholin-3-yl]methoxy}pyridin-4-yl)-3-[(3-fluoro-2-methoxyphenyl)amino]-1H,5H,6H,7H-pyrrolo[3,2-c]pyridin-4-one], the IC50 in assay [2], in assay [3] and in assay [4] was above 1000 nM each time.
For `C=CC(=O)N1[C@H](C)CC[C@H]1C#Cc1cnccc1-c1[nH]c2c(c1Nc1cccc(Cl)c1OC)C(=O)NCC2` [compound 239, 3-[(3-chloro-2-methoxyphenyl)amino]-2-(3-{2-[(2S,5R)-5-methyl-1-(prop-2-enoyl)pyrrolidin-2-yl]ethynyl}pyridin-4-yl)-1H,5H,6H,7H-pyrrolo[3,2-c]pyridin-4-one], the IC50 in assay [2], in assay [3] and in assay [4] was below 100 nM throughout.
With `COc1c(Cl)cccc1Nc1c(-c2ccncc2C#C[C@@]2(C)CCCN2C(=O)/C=C/CNC2COC2)[nH]c2c1C(=O)NCC2` [compound 595], the IC50 in assay [2] is above 1000 nM; in assay [3], below 100 nM; in assay [4] it was 100 to 1000 nM.
The like results for `C=CC(=O)N1[C@H](C)CC[C@@H]1C#Cc1cnccc1-c1[nH]c2c(c1Nc1cccc(F)c1OC)C(=O)NCC2` [compound 256, 3-[(3-fluoro-2-methoxyphenyl)amino]-2-(3-{2-[(2R,5R)-5-methyl-1-(prop-2-enoyl)pyrrolidin-2-yl]ethynyl}pyridin-4-yl)-1H,5H,6H,7H-pyrrolo[3,2-c]pyridin-4-one] were, in that order, 100 to 1000 nM, below 100 nM and below 100 nM.
As for `C=CC(=O)N[C@H](C#Cc1cnccc1-c1[nH]c2c(c1Nc1cccc(Cl)c1OC)C(=O)NCC2)CC` [compound 581], the IC50 in assay [2] was 100 to 1000 nM; in assay [3], below 100 nM; in assay [4], below 100 nM.
With `Cc1c(F)cccc1Nc1c(-c2ccncc2C#CC(C)(C)C)[nH]c2c1C(=O)NCC2` [compound 499], the 50% inhibitory concentration (IC50) in assay [2] is above 1000 nM; in assay [3], below 100 nM; in assay [4], below 100 nM.
Regarding `CC#CC(=O)N1CC[C@@H]1C#Cc1cnccc1-c1[nH]c2c(c1Nc1cccc(Cl)c1OC)C(=O)NCC2` [compound 372], the IC50 in assay [2] was 100 to 1000 nM; in assay [3], below 100 nM; in assay [4], below 100 nM.
In the case of `C=CC(=O)NC1(C#Cc2cnccc2-c2[nH]c3c(c2Nc2cccc(F)c2OC)C(=O)NCC3)CCC1` [compound 262, N-{1-[2-(4-{3-[(3-fluoro-2-methoxyphenyl)amino]-4-oxo-1H,5H,6H,7H-pyrrolo[3,2-c]pyridin-2-yl}pyridin-3-yl)ethynyl]cyclobutyl}prop-2-enamide], the concentration for half-maximal inhibition (IC50) in assay [2] is 100 to 1000 nM; in assay [3], below 100 nM; in assay [4], below 100 nM.
For the molecule `C=CC(=O)NC1(C#Cc2cnccc2-c2[nH]c3c(c2Nc2cccc(Cl)c2OC)C(=O)NCC3)CNC1` [compound 455], the IC50 in assay [2], in assay [3] and in assay [4] was above 1000 nM each time.
Consider `COc1c(F)cccc1Nc1c(-c2ccncc2C#C[C@]2(C)COCCN2C(=O)/C=C/CN(C)C)[nH]c2c1C(=O)NCC2` [compound 631], for which the IC50 is 100 to 1000 nM in assay [2], below 100 nM in assay [3] and below 100 nM in assay [4].
Take `COc1c(F)cccc1Nc1c(-c2ccncc2C#C[C@H]2CCCN2C(=O)/C=C/CN(C)C)[nH]c2c1C(=O)NCC2` [compound 303, 2-(3-{2-[(2R)-1-[(2E)-4-(dimethylamino)but-2-enoyl]pyrrolidin-2-yl]ethynyl}pyridin-4-yl)-3-[(3-fluoro-2-methoxyphenyl)amino]-1H,5H,6H,7H-pyrrolo[3,2-c]pyridin-4-one]: the values for the IC50 in assay [2], in assay [3] and in assay [4] were above 1000 nM, 100 to 1000 nM and 100 to 1000 nM, respectively.
As for `C=CC(=O)NC1(C#Cc2cnccc2-c2[nH]c3c(c2Nc2cccc(Cl)c2OC)C(=O)NCC3)CN(C)C1` [compound 410], the 50% inhibitory concentration (IC50) in assay [2] was above 1000 nM; in assay [3], below 100 nM; in assay [4], 100 to 1000 nM.
As to `C=CC(=O)NC(C)(C)C#Cc1cnccc1-c1[nH]c2c(c1Nc1cc(F)cc(Cl)c1OC)C(=O)NCC2` [compound 428], the figures for the half-maximal inhibitory concentration (IC50) in assay [2], in assay [3] and in assay [4] were 100 to 1000 nM, below 100 nM and below 100 nM, respectively.
Take `COc1c(Cl)cc(F)cc1Nc1c(-c2ccncc2C#CC23CC(CN2C(=O)/C=C/CN(C)C)C3)[nH]c2c1C(=O)NCC2` [compound 438]: the IC50 in assay [2] was 100 to 1000 nM; in assay [3] it was below 100 nM; in assay [4] it was below 100 nM.
For `COc1c(Cl)cc(F)cc1Nc1c(-c2ccncc2C#C[C@@]2(C)CCCN2C(=O)C#CCN(C)C)[nH]c2c1C(=O)NCC2` [compound 432], the half-maximal inhibitory concentration (IC50) is 100 to 1000 nM in assay [2], below 100 nM in assay [3] and below 100 nM in assay [4].

The values are drawn from patent publication US20230364070A1, “PYRROLO[3,2-C]PYRIDIN-4-ONE DERIVATIVES USEFUL IN THE TREATMENT OF CANCER” (Scorpion Therapeutics, Inc., priority 2020, published 2023).
